Data set [1] deals with adjuvant arthritis in rats. Nature of the data set: Analgesic activity: effect on adjuvant arthritis in rats (Randall-Selitto pain threshold). As to conditions: dose 3.2 mg/kg; ratio of threshold pressure of treated vs non-treated arthritic rats, 2 hrs after administration; ratio of 1.5 = effective dose. It is filed as in vivo, Lewis rats.
A further data set addresses T1, COX-II (Homo sapiens, UniProt P35354).
T1 construct: lipopolysaccharide for 24 hrs at 37° C. for induction of COX-II; from tissue; host or cells: fresh heparinized human whole blood from volunteers, stimulated with LPS for 24 hrs
T1 sequence (P35354 18-604): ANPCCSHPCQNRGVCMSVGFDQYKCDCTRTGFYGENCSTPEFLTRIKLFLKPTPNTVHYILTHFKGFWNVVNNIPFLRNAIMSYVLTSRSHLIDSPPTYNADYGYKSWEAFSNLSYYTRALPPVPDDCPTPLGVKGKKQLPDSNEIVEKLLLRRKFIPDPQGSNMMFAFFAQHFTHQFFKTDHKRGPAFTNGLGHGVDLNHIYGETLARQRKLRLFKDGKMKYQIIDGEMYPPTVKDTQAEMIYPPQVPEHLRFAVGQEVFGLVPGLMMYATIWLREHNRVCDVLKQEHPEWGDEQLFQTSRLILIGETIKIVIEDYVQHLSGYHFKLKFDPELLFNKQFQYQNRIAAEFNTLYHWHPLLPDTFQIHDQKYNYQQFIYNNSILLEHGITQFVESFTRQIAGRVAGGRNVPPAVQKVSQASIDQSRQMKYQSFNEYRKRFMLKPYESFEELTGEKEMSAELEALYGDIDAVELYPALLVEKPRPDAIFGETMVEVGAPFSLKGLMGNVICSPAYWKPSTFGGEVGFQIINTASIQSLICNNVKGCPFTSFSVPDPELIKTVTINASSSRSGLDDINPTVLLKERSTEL
Nature of the data set: Whole blood assay for COX-II (LPS-induced PGE2 production). The settings on record: lipopolysaccharide 24 hrs at 37° C. It is filed as cell-based. How it is done: Whole Blood Assay for COX-II
Fresh blood was collected in heparinized tubes by syringe from volunteers with consent. The subjects had no apparent inflammatory conditions and had not taken any medication for at least 7 days prior to blood collection.
500 μl aliquots of human whole blood were incubated with either 2 μl dimethyl sulfoxide vehicle or 2 μl of a test compound at final concentrations for 15 min at 37° C. This was followed by incubation of the blood with […] of 5 mg/ml lipopolysaccharide for 24 hrs at 37° C. for induction of COX-II. Appropriate PBS treatments (no LPS) were used as blanks. At the end of the incubation, the blood was centrifuged at 6000×g for 5 min at 4° C. to obtain plasma. A 100 μl aliquot of plasma was mixed with 400 μl methanol for protein precipitation. The supernatant was obtained by centrifuging at 6000×g for 5 min at 4° C. and was assayed for prostaglandin E2 (PGE2) using a radioimmunoassay kit after conversion of PGE2 to its methyl oximate derivative according to the manufacturer's procedure.
For a test compound, the results were expressed as percent inhibition of […] production relative to control incubations containing dimethyl sulfoxide vehicle. The data were analyzed by that a test compound at the indicated concentrations was changed log value and was applied simple linear regression. IC50 value was calculated by least squares method.

The next data set concerns the target T2, COX-I (Homo sapiens, UniProt P23219).
T2 construct: Fresh blood was collected by syringe without anticoagulants from volunteers with consent; from tissue; host or cells: fresh human whole blood from volunteers, no anticoagulant, left to clot
Nature of the data set: Whole blood assay for COX-I (TXB2 production). As to conditions: 1 hr at 37° C. It counts as cell-based. How it is done:
[B] Inhibiting Activity Against COX-I and COX-II (Whole Blood Assay): (i) Test Method: Whole Blood Assay for COX-I
Fresh blood was collected by syringe without anticoagulants from volunteers with consent. The subjects had no apparent inflammatory conditions and had not taken any medication for at least 7 days prior to blood collection.
500 μl aliquots of human whole blood were immediately incubated with 2 μl of either dimethyl sulfoxide vehicle or a test compound at final concentrations for 1 hr at 37° C. to allow the blood to clot. Appropriate treatments (no incubation) were used as blanks. At the end of the incubation, 5 μl of 250 mM Indomethacin was added to stop the reaction. The blood was centrifuged at 6000×g for 5 min at 4° C. to obtain serum. A 100 μl aliquot of serum was mixed with 400 μl methanol for protein precipitation. The supernatant was obtained by centrifuging at 6000×g for 5 min at 4° C. and was assayed for TXB2 using an enzyme immunoassay kit according to the manufacturer's procedure. For a test compound, the results were expressed as percent inhibition of thromboxane B2(TXB2) production relative to control incubations containing dimethyl sulfoxide vehicle.
The data were analyzed by that a test compound at the indicated concentrations was changed log value and was applied simple linear regression. IC50 value was calculated by least squares method.

The term melting point denotes the temperature, or range, at which the solid turns liquid. One may read the IC50 as the point on the concentration scale where inhibition reaches its midpoint. A lower IC50 goes with greater potency in that assay.

Where only a bound is given, the exact number is not on record here.

T2 sequence (P23219 24-599): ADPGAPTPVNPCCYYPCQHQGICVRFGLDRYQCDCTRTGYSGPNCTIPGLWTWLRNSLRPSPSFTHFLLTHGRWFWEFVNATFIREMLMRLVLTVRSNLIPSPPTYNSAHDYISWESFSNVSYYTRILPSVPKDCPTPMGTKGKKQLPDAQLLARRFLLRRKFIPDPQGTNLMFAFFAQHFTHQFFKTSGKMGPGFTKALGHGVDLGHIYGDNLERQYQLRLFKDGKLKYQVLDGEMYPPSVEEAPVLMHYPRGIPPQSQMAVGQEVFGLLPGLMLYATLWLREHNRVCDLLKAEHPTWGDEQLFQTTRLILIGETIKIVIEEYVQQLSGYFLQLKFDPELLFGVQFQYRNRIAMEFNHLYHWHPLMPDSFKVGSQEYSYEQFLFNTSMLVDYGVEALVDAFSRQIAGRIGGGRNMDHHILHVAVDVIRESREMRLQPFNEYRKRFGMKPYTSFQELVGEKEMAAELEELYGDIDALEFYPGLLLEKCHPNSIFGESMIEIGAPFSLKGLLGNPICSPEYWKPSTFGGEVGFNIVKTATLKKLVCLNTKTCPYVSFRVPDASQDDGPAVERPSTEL

Regarding `COc1ccc(-c2nc(C(C)=O)cn2-c2ccc(OC)cc2)cc1` [Example 28, 4-Acetyl-1-(4-methoxyphenyl)-2-(4-methoxyphenyl)-1H-imidazole], the melting point was in the range of 116 to 117 °C. Further, the “The coefficient of analgesic” value in data set [1] is greater than 1.5.

Consider `CCC(=O)c1cn(-c2ccc(OCc3ccccc3)cc2)c(-c2ccc(OC)nc2)n1` [Example 55, 1-(4-Benzyloxyphenyl)-4-ethylcarbonyl-2-(2-methoxy-5-pyridinyl)-1H-imidazole], for which the melting point lay in the range of 126 to 128 °C.

For the compound `CCOC(=O)c1cn(-c2ccc(OC)cc2)c(-c2ccc(OC)cc2)n1` [Example 9, 4-Ethoxycarbonyl-1-(4-methoxyphenyl)-2-(4-methoxyphenyl)-1H-imidazole], the melting point was 142 to 143 °C.

Regarding `COc1ccc(-c2nc(C(=O)C(C)C)cn2-c2ccc(O)cc2)cn1` [Example 58, 4-Isopropylcarbonyl-1-(4-hydroxyphenyl)-2-(2-methoxy-5-pyridinyl)-1H-imidazole], the melting point lay within 185 to 187 °C.

`COc1ccc(-c2nc(C#N)cn2-c2ccc(OC)cc2)cc1` [Example 12-2, 4-Cyano-1-(4-methoxyphenyl)-2-(4-methoxyphenyl)-1H-imidazole] displayed a melting point of 132 to 134 °C.

In the case of `CCOC(=O)c1ccc(-n2cc(C#N)nc2-c2ccc(OC)cc2)cc1` [Example 25-2, 4-Cyano-1-(4-ethoxycarbonylphenyl)-2-(4-methoxyphenyl)-1H-imidazole], the melting point lay in the range of 139 to 140 °C.

For the compound `COc1ccc(-c2nc(C(F)F)cn2-c2ccc(C#N)cc2)cc1` [Example 34, 1-(4-Cyanophenyl)-4-difluoromethyl-2-(4-methoxyphenyl)-1H-imidazole], the melting point was in the range of 131 to 132 °C. In addition, the IC50 at COX-II is no less than 0.1 µM. Besides, on COX-I, the IC50 was less than 0.01 µM.

On to `COc1ccc(-c2nc(C(F)(F)F)cn2-c2ccc(O)cc2)cc1` [Example 62, 1-(4-Hydroxyphenyl)-2-(4-methoxyphenyl)-4-trifluoromethyl-1H-imidazole], for which the melting point is 215 to 216 °C.

Compound `COc1ccc(-c2nc(C(F)(F)F)cn2-c2ccc(O)cc2)cn1` [Example 6, 1-(4-Hydroxyphenyl)-2-(2-methoxy-5-pyridinyl)-4-trifluoromethyl-1H-imidazole] returned a melting point of 198 to 200 °C.

Turning to `CCN(C)C(=O)c1cn(-c2ccc(OCc3ccccc3)cc2)c(-c2ccc(OC)cc2)n1` [Example 46, 1-(4-Benzyloxyphenyl)-4-(N-ethyl-N-methylcarbamoyl)-2-(4-methoxyphenyl)-1H-imidazole], the melting point lay in the range of 118 to 119 °C.

`COc1ccc(-n2cc(C#N)nc2-c2ccc(OC)nc2)cc1` [Example 4-2, 4-Cyano-1-(4-methoxyphenyl)-2-(2-methoxy-5-pyridinyl)-1H-imidazole] showed a melting point of 130 to 132 °C. The compound further returned an IC50 on COX-II of no less than 0.1 µM. This compound also yielded an IC50 against COX-I of less than 0.01 µM.

For the compound `COc1ccc(-c2nc(C)cn2-c2ccc(OC)cc2)cc1.Cl` [Example 21, 1-(4-Methoxyphenyl)-2-(4-methoxyphenyl)-4-methyl-1H-imidazole hydrochloride], the melting point was in the range of 203 to 205 °C. Moreover, the IC50 on COX-II is no less than 0.1 µM. The IC50 against COX-I was less than 0.01 µM.

The compound `COc1ccc(-c2nc(C#N)cn2-c2ccc(C#N)cc2)cc1` [Example 27, 4-Cyano-1-(4-cyanophenyl)-2-(4-methoxyphenyl)-1H-imidazole] showed a melting point of 185 to 186 °C.

Compound `COc1ccc(-c2nc(C(=O)C(C)C)cn2-c2ccc(OCc3ccccc3)cc2)cn1` [Example 57, 1-(4-Benzyloxyphenyl)-4-isopropylcarbonyl-2-(2-methoxy-5-pyridinyl)-1H-imidazole] displayed a melting point of 118 to 120 °C.

The compound `CCC(=O)c1cn(-c2ccc(O)cc2)c(-c2ccc(OC)nc2)n1` [Example 56, 4-Ethylcarbonyl-1-(4-hydroxyphenyl)-2-(2-methoxy-5-pyridinyl)-1H-imidazole] came in with a melting point of 221 to 223 °C.

For the compound `CCOC(=O)c1cn(-c2ccc(OCc3ccccc3)cc2)c(-c2ccc(OC)nc2)n1` [Example 35-2, 1-(4-Benzyloxyphenyl)-4-ethoxycarbonyl-2-(2-methoxy-5-pyridinyl)-1H-imidazole], the melting point lay in the range of 109 to 110 °C.

`COc1ccc(-c2nc(C(=O)O)cn2-c2ccc(OC)cc2)cc1` [Example 18, 4-Carboxy-1-(4-methoxyphenyl)-2-(4-methoxyphenyl)-1H-imidazole] came in with a melting point of 102 to 105 °C.

`COc1ccc(-c2nc(C3CC3)cn2-c2ccc(OC)cc2)cc1.Cl` [Example 20, 4-Cyclopropyl-1-(4-methoxyphenyl)-2-(4-methoxyphenyl)-1H-imidazole hydrochloride] yielded a melting point of 180 to 181 °C. Besides, the IC50 on COX-II is no less than 0.1 µM. The compound also had an IC50 on COX-I of less than 0.01 µM.

`COc1ccc(-c2nc(C(F)(F)F)cn2-c2ccc(C#N)cc2)cn1` [Example 8, 1-(4-Cyanophenyl)-2-(2-methoxy-5-pyridinyl)-4-trifluoromethyl-1H-imidazole] had a melting point of 155 to 158 °C. This compound returned an IC50 against COX-II of no less than 0.1 µM. Also, the IC50 on COX-I is less than 0.01 µM.

In turn, `COc1ccc(-c2nc(C(F)F)cn2-c2ccc(O)cc2)cc1` [Example 32, 4-Difluoromethyl-1-(4-hydroxyphenyl)-2-(4-methoxyphenyl)-1H-imidazole] showed a melting point of 143 to 145 °C.

`COc1ccc(-c2nc(C(F)F)cn2-c2ccc(OC)cc2)cc1.Cl` [Example 17, 4-Difluoromethyl-1-(4-methoxyphenyl)-2-(4-methoxyphenyl)-1H-imidazole hydrochloride] gave a melting point of 150 to 153 °C. The same compound gave an IC50 at COX-II of no less than 0.1 µM. In addition, the half-inhibitory concentration (IC50) against COX-I was less than 0.01 µM.

The compound `COc1ccc(-c2nc(C(F)(F)F)cn2-c2ccc(Br)cc2)cc1` [Example 1-2, 1-(4-Bromophenyl)-2-(4-methoxyphenyl)-4-trifluoromethyl-1H-imidazole] came in with a melting point of 140 to 141 °C. In addition, the IC50 against COX-II is no less than 0.1 µM. The half-inhibitory concentration (IC50) against COX-I was less than 0.01 µM.

Turning to `CCOC(=O)c1cn(-c2ccc(OC)cc2)c(-c2ccc(OC)nc2)n1` [Example 41-2, 4-Ethoxycarbonyl-1-(4-methoxyphenyl)-2-(2-methoxy-5-pyridinyl)-1H-imidazole], the melting point was 135 to 137 °C.

On to `COc1ccc(-c2nc(C(N)=O)cn2-c2ccc(OC)cc2)cc1` [Example 10, 4-Carbamoyl-1-(4-methoxyphenyl)-2-(4-methoxyphenyl)-1H-imidazole], for which the melting point lay in the range of 167 to 169 °C.

`CCN(CC)C(=O)c1cn(-c2ccc(OCc3ccccc3)cc2)c(-c2ccc(OC)cc2)n1` [Example 48, 1-(4-Benzyloxyphenyl)-4-(N,N-diethylcarbamoyl)-2-(4-methoxyphenyl)-1H-imidazole] showed a melting point of 146 to 147 °C.

The record behind these values is patent US20070043084A1, “1,2-Diarylimidazoles useful as inhibitors of cox” (Astellas Pharma Inc., priority 2003, published 2007).
